# Laboratory results taken from ChEMBL document CHEMBL5230122, “Natural products and other inhibitors of F1FO ATP synthase” (Eur J Med Chem, 2020).
# Assays:
# MCF7 [1] = experiment: Anticancer activity against human MCF7 cells assessed as reduction in cell viability incubated for 48 hrs by sulforhodamine B (SRB) assay; type: functional, cell-based; conditions: MCF7, 48 h
# P388 [2] = experiment: Anticancer activity against mouse P388 cells assessed as reduction in cell viability incubated for 96 hrs by MTT assay; type: functional, cell-based; conditions: P388, 96 h
# P388 [3] = experiment: Anticancer activity against mouse P388 cells assessed as reduction in cell viability incubated for 48 hrs by sulforhodamine B (SRB) assay; type: functional, cell-based; conditions: P388, 48 h
# A498 = experiment: Antiproliferative activity against human A498 cells assessed as decrease in cellular ATP content and measured after 2 days by CellTiter-Glo luminescent assay; type: functional, cell-based; conditions: A498, 48 h
# KB 3-1 = experiment: Antiproliferative activity against human KB-3-1 cells assessed as decrease in cellular ATP content and measured after 2 days by CellTiter-Glo luminescent assay; type: functional, cell-based; conditions: KB 3-1, 48 h
# [4] = Cytotoxicity against mouse L929 cells assessed as reduction in cell viability; type: toxicity, cell-based
# KB-V1 = experiment: Antiproliferative activity against human KB-V1 cells assessed as decrease in cellular ATP content and measured after 2 days by CellTiter-Glo luminescent assay; type: functional, cell-based; conditions: KB-V1, 48 h
# U-937 = experiment: Antiproliferative activity against human U-937 cells assessed as decrease in cellular ATP content and measured after 2 days by CellTiter-Glo luminescent assay; type: functional, cell-based; conditions: U-937, 48 h
# A549 [5] = experiment: Antiproliferative activity against human A549 cells assessed as decrease in cellular ATP content and measured after 2 days by CellTiter-Glo luminescent assay; type: functional, cell-based; conditions: A549, 48 h
# [6] = Inhibition of yeast mitochondrial F0F1-ATPase incubated for 15 mins by colorimetric assay; type: mitochondria, Saccharomyces cerevisiae, Mitochondria
# [7] = Inhibition of bovine heart mitochondrial F0F1-ATP synthase incubated for 15 mins by colorimetric assay; type: mitochondria, Bos taurus, Mitochondria
# K562 = experiment: Antiproliferative activity against human K562 cells assessed as decrease in cellular ATP content and measured after 2 days by CellTiter-Glo luminescent assay; type: functional, cell-based; conditions: K562, 48 h
# SK-OV-3 [8] = experiment: Antiproliferative activity against human SK-OV-3 cells assessed as decrease in cellular ATP content and measured after 2 days by CellTiter-Glo luminescent assay; type: functional, cell-based; conditions: SK-OV-3, 48 h
# [9] = Anticancer activity against rat Ad12-3Y1-W5 cells assessed as reduction in cell viability incubated for 3 days by MTT assay; type: functional, cell-based; conditions: Ad12-3Y1-W5, 72 h
# SK-OV-3 [10] = experiment: Anticancer activity against human SK-OV-3 cells assessed as reduction in cell viability incubated for 72 hrs by WST-8 assay; type: functional, cell-based; conditions: SK-OV-3, 72 h
# [11] = Anticancer activity against rat Ad12-3Y1-Z11 cells assessed as reduction in cell viability incubated for 3 days by MTT assay; type: functional, cell-based; conditions: Ad12-3Y1-Z11, 72 h
# [12] = Anticancer activity against rat HR-3Y1-2 cells assessed as reduction in cell viability incubated for 3 days by MTT assay; type: functional, cell-based; conditions: HR-3Y1-2, 72 h
# [13] = Anticancer activity against rat E1A-3Y1-2 cells assessed as reduction in cell viability incubated for 3 days by MTT assay; type: functional, cell-based; conditions: E1A-3Y1-2, 72 h
# [14] = Anticancer activity against human ACC-MESO-1 cells assessed as reduction in cell viability incubated for 72 hrs by WST-8 assay; type: functional, cell-based; conditions: ACC-MESO-1, 72 h
# [15] = Anticancer activity against rat SV-3Y1-C66 cells assessed as reduction in cell viability incubated for 3 days by MTT assay; type: functional, cell-based; conditions: SV-3Y1-C66, 72 h
# [16] = Anticancer activity against rat SR-3Y1-2 cells assessed as reduction in cell viability incubated for 3 days by MTT assay; type: functional, cell-based; conditions: SR-3Y1-2, 72 h
# [17] = Anticancer activity against rat HR-3Y1-3 cells assessed as reduction in cell viability incubated for 3 days by MTT assay; type: functional, cell-based; conditions: HR-3Y1-3, 72 h
# Jurkat = experiment: Anticancer activity against human Jurkat cells assessed as reduction in cell viability incubated for 72 hrs by WST-8 assay; type: functional, cell-based
# [18] = Anticancer activity against rat SR-3Y1-3 cells assessed as reduction in cell viability incubated for 3 days by MTT assay; type: functional, cell-based; conditions: SR-3Y1-3, 72 h
# [19] = Anticancer activity against rat SR-3Y1-1 cells assessed as reduction in cell viability incubated for 3 days by MTT assay; type: functional, cell-based; conditions: SR-3Y1-1, 72 h
# [20] = Anticancer activity against rat E1A-3Y1-3 cells assessed as reduction in cell viability incubated for 3 days by MTT assay; type: functional, cell-based; conditions: E1A-3Y1-3, 72 h
# [21] = Anticancer activity against rat Ad12-3Y1-Z13 cells assessed as reduction in cell viability incubated for 3 days by MTT assay; type: functional, cell-based; conditions: Ad12-3Y1-Z13, 72 h
# [22] = Anticancer activity against rat E1A-3Y1-1 cells assessed as reduction in cell viability incubated for 3 days by MTT assay; type: functional, cell-based; conditions: E1A-3Y1-1, 72 h
# [23] = Anticancer activity against rat Ad12-3Y1-Z19 cells assessed as reduction in cell viability incubated for 3 days by MTT assay; type: functional, cell-based; conditions: Ad12-3Y1-Z19, 72 h
# [24] = Anticancer activity against rat HR-3Y1-1 cells assessed as reduction in cell viability incubated for 3 days by MTT assay; type: functional, cell-based; conditions: HR-3Y1-1, 72 h
# [25] = Inhibition of yeast mitochondrial F0F1-ATPase assessed as inhibition constant measured after 20 mins in presence of NADH and ATP by microplate reader analysis; type: mitochondria, Saccharomyces cerevisiae, Mitochondria
# MDA-MB-231 = experiment: Antiproliferative activity against human MDA-MB-231 cells assessed as reduction in cell viability incubated for 48 hrs by MTT assay; type: functional, cell-based; conditions: MDA-MB-231, 48 h
# [26] = Inhibition of bovine heart mitochondrial F0F1-ATPase assessed as decrease in rate of ATP hydrolysis by fluorescence assay; type: mitochondria, Bos taurus, Mitochondria
# HL-60 = experiment: Antiproliferative activity against human HL-60 cells assessed as reduction in cell viability incubated for 48 hrs by MTT assay; type: functional, cell-based; conditions: HL-60, 48 h
# T47D = experiment: Antiproliferative activity against human T47D cells assessed as reduction in cell viability incubated for 48 hrs by MTT assay; type: functional, cell-based
# SMMC-7721 = experiment: Antiproliferative activity against human SMMC-7721 cells assessed as reduction in cell viability incubated for 48 hrs by MTT assay; type: functional, cell-based; conditions: SMMC-7721, 48 h
# A549 [27] = experiment: Antiproliferative activity against human A549 cells assessed as reduction in cell viability incubated for 48 hrs by MTT assay; type: functional, cell-based; conditions: A549, 48 h
# [28] = Inhibition of bovine heart mitochondrial F0F1-ATPase assessed as reduction in ATP synthesis by fluorescence assay; type: mitochondria, Bos taurus, Mitochondria
# SW480 = experiment: Antiproliferative activity against human SW480 cells assessed as reduction in cell viability incubated for 48 hrs by MTT assay; type: functional, cell-based; conditions: SW480, 48 h
# MCF7 [29] = experiment: Antiproliferative activity against human MCF7 cells assessed as reduction in cell viability incubated for 48 hrs by MTT assay; type: functional, cell-based; conditions: MCF7, 48 h
smiles,measurement,setting,value
CC/C(C)=C(\NC(=O)[C@@H](NC(=O)CC(=O)[C@@H](C)CC(C)C)[C@](C)(O)CC)C(=O)N[C@@H](C)C(=O)N/C(C(=O)N[C@@H](C(=O)N[C@@H](C(=O)N[C@@H](C(=O)N[C@H](C(=O)N/C(C(=O)N[C@H](C)C(=O)N[C@@H](C(=O)N[C@H](C(=O)NC(C(=O)N[C@H](CN(C)C)C(C)C)=C(C)C)C(C)C)C(C)C)=C(\C)CC)C(C)(C)O)C(C)(C)O)[C@@H](C)CC)C(C)C)=C(\C)CC,IC50,MCF7 [1],0.01 µM
same,IC50,P388 [2],0.00051 µM
same,IC50,P388 [3],0.01 µM
CCC[C@H](O)[C@@H](C)C(=O)NC/C=C\C[C@@H](C)[C@@H](O)[C@H](C)[C@@H]1C/C=C\C[C@H](C)[C@H](O)Cc2cc(OC)cc(O)c2C(=O)O1,IC50,A498,0.4 ng/mL
same,IC50,KB 3-1,0.3 ng/mL
same,IC50,[4],1.2 ng/mL
same,IC50,KB-V1,0.6 ng/mL
same,IC50,U-937,0.1 ng/mL
same,IC50,A549 [5],0.4 ng/mL
same,IC50,[6],0.015 µM
same,IC50,[7],0.015 µM
same,IC50,K562,0.6 ng/mL
same,IC50,SK-OV-3 [8],1 ng/mL
CC[C@H](C)[C@@H]1NC(=O)[C@H](NC(=O)[C@H](C)NC(=S)[C@H](C)NC(=S)[C@H](C)NC(=S)[C@H](C)NC(=S)[C@H](CCSC)NC(=S)[C@@H](NC(=O)C(C)(O)CC(C)=O)C(C)C)CS/C=C\NC(=O)[C@H](C(O)c2cn(C)c[n+]2C)NC(=O)[C@H](CC(C)C)NC(=O)[C@H](C)NC1=O (stereo not given in full),IC50,[9],3.9 ng/mL
same,IC50,SK-OV-3 [10],38 µM
same,IC50,[11],3.9 ng/mL
same,IC50,[12],200 ng/mL
same,IC50,[13],32 ng/mL
same,IC50,[14],27.8 µM
same,IC50,[15],460 ng/mL
same,IC50,[16],630 ng/mL
same,IC50,[17],200 ng/mL
same,IC50,Jurkat,12.5 µM
same,IC50,[18],630 ng/mL
same,IC50,[19],630 ng/mL
same,IC50,[20],32 ng/mL
same,IC50,[21],3.9 ng/mL
same,IC50,[22],32 ng/mL
same,IC50,[23],3.9 ng/mL
same,IC50,[24],200 ng/mL
COC[C@@H](C[C@H]1O[C@@](O)([C@@H]2OC(=O)/C(C)=C/C(C)=C/C(C)=C/[C@@H](C)[C@H](O[C@@H]3O[C@@H](C)[C@H](OC)[C@@H](O)[C@@H]3O)/C=C/C(C)=C/CC[C@H](O)[C@@H](OC)C[C@@H]2O)[C@H](C)[C@@H](O)[C@H]1C)O[C@H]1C[C@](C)(O)[C@@H](O[C@H]2C[C@@H](OC)[C@H](O)[C@@H](C)O2)[C@H](C)O1,Ki,[25],17 µM
CC[C@H]1O[C@@]2(C)[C@H](OC(C)=O)[C@@]1(C)O[C@@H](/C=C/C=C/C=C/c1oc(=O)cc(OC)c1C)[C@@H]2O,IC50,MDA-MB-231,5.52 µM
same,Ki,[26],0.12 µM
same,IC50,HL-60,14.7 µM
same,IC50,T47D,0.89 µM
same,IC50,SMMC-7721,10.8 µM
same,IC50,A549 [27],14.7 µM
same,Ki,[28],0.025 µM
same,IC50,SW480,22.4 µM
same,IC50,MCF7 [29],0.09 µM
